Assay results: paper PMC9490060, “Synthesis and evaluation of anticancer activity of quillaic acid derivatives: A cell cycle arrest and apoptosis inducer through NF-κB and MAPK pathways” (Frontiers in Chemistry, 2022)

System: HCT116 cells
Test: Colony formation assay
Format: cell-based, human
Conditions: HCT116, 2.5, 5, 10 μM, 7 days
Protocol: The colony-forming cell assay was used to determine the ability of cells to proliferate and differentiate into colonies and thereby to investigate the anti-proliferative efficacy of compound E ([Lei et al., 2015]).
FIGURE 3 Colony formation of HCT116 cells inhibited by compound E. (A) HCT116 cells were incubated with varying concentrations of E (0, 2.5, 5, 10 μM) and stained with crystal violet. (B) The micrographic differences between the colonies. Images were taken of stained single colonies observed under a microscope.
Exponentially growing HCT116 cells (600 cells per well) were plated on 6-well plates with Roswell Park Memorial Institute (RPMI) 1,640 medium containing 10% fetal bovine serum (FBS). After incubating for 12 h, replace with fresh medium. Then, the cells were treated with different concentrations of compound E (2.5, 5 and 10 μM) dissolved in DMSO. Some cells only use DMSO as a negative control. Then incubate for another 7 days. Finally, the cells were fixed with 95% ethanol for 25 min, stained with 0.1% crystal violet for 15 min at room temperature, and then washed with PBS until the […] were completely removed.

SMILES: CC1(C)CC[C@]2(C(=O)OCCn3nnnc3-c3ccccc3)[C@H](O)C[C@]3(C)C(=CC[C@@H]4[C@@]5(C)CC[C@H](O)[C@@](C)(C=O)[C@@H]5CC[C@]43C)[C@@H]2C1 [Compound E, 2-(5-phenyl-1H-tetrazol-1-yl)ethyl (4aR,5R,6aS,6bR,8aR,9S,10S,12aR,12bR,14bS)-9-formyl-5,10-dihydroxy-2,2,6a,6b,9,12a-hexamethyl-1,3,4,5,6,6a,6b,7,8,8a,9,10,11,12,12a,12b,13,14b-octadecahydropicene-4a (2H)-carboxylate]
- colony formation (number and size of colonies): significantly decreased the number and size of colonies in a concentration-dependent manner
